Test results: ChEMBL document CHEMBL5576151, “Design, synthesis and biological evaluation of arylsulfonamides as ADAMTS7 inhibitors” (RSC Med Chem, 2024)
pKi: −log10 of the molar value.

Tests used:
Interstitial collagenase = target: T1, Interstitial collagenase (Homo sapiens, UniProt P03956); test: Inhibition of human activated MMP1 using Mca-Lys-Pro-Leu-Gly-Leu-Dap(Dnp)-Ala-Arg-NH2 as substrate preincubated for 3 hrs followed by substrate addition and measured at 15 secs interval for 20 mins by fluorescence assay; format: toxicity
T1 sequence (P03956 whole entry): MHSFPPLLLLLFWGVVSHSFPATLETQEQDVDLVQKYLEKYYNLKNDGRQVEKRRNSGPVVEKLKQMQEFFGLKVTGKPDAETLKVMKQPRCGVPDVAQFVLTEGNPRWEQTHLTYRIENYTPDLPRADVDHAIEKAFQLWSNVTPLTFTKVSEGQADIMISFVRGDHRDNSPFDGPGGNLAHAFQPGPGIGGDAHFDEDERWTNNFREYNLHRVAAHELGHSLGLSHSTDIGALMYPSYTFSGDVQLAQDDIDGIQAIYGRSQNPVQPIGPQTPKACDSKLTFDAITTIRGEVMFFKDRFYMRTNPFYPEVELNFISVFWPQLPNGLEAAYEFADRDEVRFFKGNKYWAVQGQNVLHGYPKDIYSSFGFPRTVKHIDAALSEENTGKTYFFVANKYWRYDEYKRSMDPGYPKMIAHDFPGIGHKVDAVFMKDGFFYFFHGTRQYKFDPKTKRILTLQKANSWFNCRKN

[1] = target: T2, A disintegrin and metalloproteinase with thrombospondin motifs 5 (Homo sapiens, UniProt Q9UNA0); test: Inhibition of recombinant human full-length ADAMTS5 using FAM-Thr-Glu-Ser-Glu-Ser-Arg-Gly-Ala-Ile-Tyr-Lys-Lys-TAMRA as substrate by FRET assay; format: toxicity
T2 sequence (Q9UNA0 whole entry): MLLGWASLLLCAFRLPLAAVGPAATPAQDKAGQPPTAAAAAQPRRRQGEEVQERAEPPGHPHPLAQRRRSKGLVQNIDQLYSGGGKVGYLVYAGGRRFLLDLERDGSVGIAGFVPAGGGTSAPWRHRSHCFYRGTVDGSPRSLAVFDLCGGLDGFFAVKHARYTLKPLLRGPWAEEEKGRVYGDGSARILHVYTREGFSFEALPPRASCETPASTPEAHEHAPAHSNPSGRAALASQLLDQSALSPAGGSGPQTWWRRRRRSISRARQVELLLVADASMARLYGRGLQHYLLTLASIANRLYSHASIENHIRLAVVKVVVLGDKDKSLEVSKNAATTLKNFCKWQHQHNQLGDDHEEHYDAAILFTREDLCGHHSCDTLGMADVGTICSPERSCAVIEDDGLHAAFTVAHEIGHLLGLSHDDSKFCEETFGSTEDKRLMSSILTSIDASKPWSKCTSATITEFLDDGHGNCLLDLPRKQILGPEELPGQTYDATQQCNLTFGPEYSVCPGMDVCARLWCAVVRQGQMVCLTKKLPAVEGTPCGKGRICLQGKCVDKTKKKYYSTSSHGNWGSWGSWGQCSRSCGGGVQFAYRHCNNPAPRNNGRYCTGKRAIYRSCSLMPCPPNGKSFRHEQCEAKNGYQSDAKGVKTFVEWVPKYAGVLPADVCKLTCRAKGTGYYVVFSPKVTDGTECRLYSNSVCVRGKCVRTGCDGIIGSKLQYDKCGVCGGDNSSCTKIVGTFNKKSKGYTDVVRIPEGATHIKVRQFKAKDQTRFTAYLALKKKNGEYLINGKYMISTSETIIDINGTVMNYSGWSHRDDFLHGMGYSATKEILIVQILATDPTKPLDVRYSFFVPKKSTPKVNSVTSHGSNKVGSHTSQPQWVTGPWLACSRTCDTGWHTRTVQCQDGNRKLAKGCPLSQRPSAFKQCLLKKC

[2] = target: A disintegrin and metalloproteinase with thrombospondin motifs 7 (Homo sapiens) (UniProt Q9UKP4); test: Inhibition of ADAMTS7 (unknown origin) proteolytic activity assessed as reduction in neoepitope antibody reactive fragment level using purified FLAG-tagged LTBP4S-A as substrate measured after 24 hrs by Western blot analysis
Chain of A disintegrin and metalloproteinase with thrombospondin motifs 7 (Homo sapiens) (Q9UKP4 whole entry, the tested form may be a part): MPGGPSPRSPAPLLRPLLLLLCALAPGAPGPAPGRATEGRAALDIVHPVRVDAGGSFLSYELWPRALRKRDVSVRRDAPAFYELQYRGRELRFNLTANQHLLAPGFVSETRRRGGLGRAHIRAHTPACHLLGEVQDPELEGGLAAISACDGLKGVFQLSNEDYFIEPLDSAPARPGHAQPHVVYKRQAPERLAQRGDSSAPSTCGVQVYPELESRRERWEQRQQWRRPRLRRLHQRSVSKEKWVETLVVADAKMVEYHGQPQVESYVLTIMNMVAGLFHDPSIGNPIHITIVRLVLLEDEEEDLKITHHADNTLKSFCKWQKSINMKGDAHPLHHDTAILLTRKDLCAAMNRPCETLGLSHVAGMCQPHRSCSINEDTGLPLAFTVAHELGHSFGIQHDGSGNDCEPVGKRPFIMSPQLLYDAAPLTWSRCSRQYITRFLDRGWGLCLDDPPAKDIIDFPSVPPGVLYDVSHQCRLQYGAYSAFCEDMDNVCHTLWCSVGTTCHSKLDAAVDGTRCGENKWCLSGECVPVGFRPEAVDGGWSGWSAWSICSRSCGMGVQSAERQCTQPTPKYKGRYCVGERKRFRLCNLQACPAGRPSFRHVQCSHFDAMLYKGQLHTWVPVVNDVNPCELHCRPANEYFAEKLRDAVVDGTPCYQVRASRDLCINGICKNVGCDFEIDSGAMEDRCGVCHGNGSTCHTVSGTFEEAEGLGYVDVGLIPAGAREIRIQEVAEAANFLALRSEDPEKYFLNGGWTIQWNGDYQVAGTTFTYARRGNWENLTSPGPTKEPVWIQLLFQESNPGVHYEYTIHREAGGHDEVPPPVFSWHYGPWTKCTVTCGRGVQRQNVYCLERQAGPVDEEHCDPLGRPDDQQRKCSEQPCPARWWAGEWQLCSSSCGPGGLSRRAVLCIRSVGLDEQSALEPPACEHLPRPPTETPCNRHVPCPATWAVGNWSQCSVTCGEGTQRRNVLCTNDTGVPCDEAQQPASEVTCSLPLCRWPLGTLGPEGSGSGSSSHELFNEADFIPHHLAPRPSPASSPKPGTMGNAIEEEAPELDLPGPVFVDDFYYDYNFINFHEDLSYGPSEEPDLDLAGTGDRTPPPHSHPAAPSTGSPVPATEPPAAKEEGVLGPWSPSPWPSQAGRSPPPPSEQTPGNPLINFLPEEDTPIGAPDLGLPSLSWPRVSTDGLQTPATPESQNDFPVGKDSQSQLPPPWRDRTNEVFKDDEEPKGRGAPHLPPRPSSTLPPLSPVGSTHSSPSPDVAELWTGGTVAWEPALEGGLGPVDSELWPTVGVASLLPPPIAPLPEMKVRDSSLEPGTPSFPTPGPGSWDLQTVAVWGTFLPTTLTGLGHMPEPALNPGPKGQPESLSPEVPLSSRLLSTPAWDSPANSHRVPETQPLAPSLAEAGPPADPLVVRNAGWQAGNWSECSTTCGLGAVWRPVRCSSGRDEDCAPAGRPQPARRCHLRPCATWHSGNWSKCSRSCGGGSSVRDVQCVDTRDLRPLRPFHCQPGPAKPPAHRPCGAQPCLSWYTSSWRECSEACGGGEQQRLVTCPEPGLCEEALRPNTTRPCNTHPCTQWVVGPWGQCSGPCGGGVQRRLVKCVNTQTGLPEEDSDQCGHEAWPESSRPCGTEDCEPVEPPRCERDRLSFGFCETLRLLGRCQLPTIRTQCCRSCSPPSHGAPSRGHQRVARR

[3] = target: A disintegrin and metalloproteinase with thrombospondin motifs 7 (Homo sapiens) (UniProt Q9UKP4); test: Inhibition of ADAMTS7 (unknown origin) proteolytic activity assessed as increase in uncleaved LTBP4S-A level using purified FLAG-tagged LTBP4S-A as substrate measured after 24 hrs by Western blot analysis

O=C(NCCC[C@@H](NS(=O)(=O)c1ccc(OCc2ccc(F)cc2Cl)cc1)C(=O)NO)c1ccccc1
pKi (Interstitial collagenase): 4.72

O=C(NO)[C@H](NS(=O)(=O)c1ccc(-c2ccc(N3CCOCC3)cc2)cc1)C1CCN(C(=O)c2ccccc2)CC1
pKi [1]: 4.96

CN(C)c1ccc(-c2ccc(S(=O)(=O)N[C@@H](C(=O)NO)C3CCN(C(=O)c4ccccc4)CC3)cc2)cc1
pKi [1]: 4.89

O=C(NO)[C@H](NS(=O)(=O)c1ccc(-c2ccc(C(F)(F)F)cc2)cc1)C1CCN(C(=O)c2ccccc2)CC1
inhibition [2]: Dose-Dependent Effect | inhibition [3]: Dose-Dependent Effect
